Source: US7511078B2, “Antiallergic agents, drugs, foods, drinks or cosmetics containing them and process for producing the same” (Kikkoman Corporation, priority 2001, dated 2009)
≈ marks a conversion by molar mass, not a printed value. Structures can show the parent of a compound that is named as a salt.

Columns and labels:
rat fat cells = test: Histamine-release inhibiting activity from rat fat cells (Compound 48/80 induced); assay type: cell-based; conditions: for IC50: 50% inhibition rate; for inhibition at 25 µg/mL: sample concentration 25 μg/ml; for inhibition at 75 µg/mL: sample concentration 75 μg/ml; for inhibition at 250 µg/mL: sample concentration 250 μg/ml; for histamine-release inhibiting activity (FIG. 7): sample solutions 100 μg/ml each; for activity relative to the known agents (caffeic acid, ketotifen fumarate): from IC50 values of histamine-release inhibition
Experimental: Cells were collected from the abdominal cavity of rats immediately after being sacrificed by exsanguinations using heparin-containing fat cell buffer (composition: 0.150 M NaCl, 3.7 mM KCl, 3.0 mM Na2HPO4, 3.5 mM KH2PO4, 0.9 mM CaCl2, 5.6 mM D-glucose, 0.1% (w/v) gelatin) (Lectures on Experimental Biopharmacology, Vol.12, Inflammations and Allergies II, edited by Kazuo Ohuchi, published by Hirokawa Publishing, 1993, page 372). After washing the cells, the above heparin-containing fat cell buffer was added to a concentration of 2.0×10^5 cells/ml, and this was used as the cell suspension.
Meanwhile, 3 mg of tomato extract were dissolved in 1 ml of 1% dimethyl sulfoxide (DMSO) and used as a sample solution. Further, the naringenin chalcone obtained in Example 1-3, and ketotifen fumarate, which is known to have an antiallergic activity, were respectively dissolved in the heparin-containing fat cell buffer containing 0.15% DMSO (final concentration), and the tricaffeoylquinic acid obtained in Example 1-4, and caffeic acid, which is known to have an antiallergic activity, were respectively dissolved in heparin-containing fat cell buffer containing 0.08% ethanol (final concentration), and each of these were used as sample solutions having concentrations of 25-250 μg/ml.
80 μl of the above cell suspension were added to 20 μl of the sample solution and the mixture was incubated at 37° C. for 10 minutes. Subsequently, 20 μl of Compound 48/80 (5 μg/ml) were added as histamine-degranulation inducer, and the mixture was incubated for 10 minutes. After the mixture was cooled with ice, it was separated by centrifugation (1,500×g, 5 minutes, 4° C.), and the free histamine in the supernatant was measured by high-performance liquid chromatography equipped with a fluorescent detector.
Histamine-release inhibiting activity was calculated from the measured histamine values using calculation formula (1) shown below. Histamine-release inhibition rate (%)=(1−(S−B)/(C−B))×100 (1) • B: Amount of histamine released from control cells in the absence of inducer • C: Amount of histamine released from cells in the presence of inducer • S: Amount of histamine released from cells in the presence of test sample and inducer

[1] = Cytotoxicity test (Trypan Blue, rat abdominal cavity cells); assay type: cell-based; conditions: various concentrations, 37° C., 0-120 minutes
Experimental: To 80 μl of cell suspension (1-2×10^6 cells/ml) prepared in the same manner as in Example 2 were added 20 μl of sample solutions (Tomato Extract 1, naringenin chalcone, tricaffeoylquinic acid or dicaffeoylsuccinylquinic acid obtained in Example 1) with various concentrations, and the mixture was cultured at 37° C. Each of 10 μl aliquots was taken after 0, 10, 20, 60 and 120 minutes from the start of culturing, and each aliquot was added to 20 μl of 0.4% Trypan Blue prepared in advance. Judging those cells that were stained with blue pigment to be dead cells, the number of cells was counted under microscopic examination using a hemocytometer. Viability (percentage of viable cells to the total number of cells) and the number of viable cells were measured.

mouse auricular edema = test: Anaphylaxis inhibitory action in mouse auricular edema (anti-TNP-IgE / picryl chloride); assay type: in vivo
Experimental: C3H/Hecrj, 7-week-old female mice having body weights of 15-20 g were used in groups of five animals each. Tomato Extract 1 was suspended in 0.5% CMC-Na (sodium carboxymethyl cellulose) solution, while 0.5% CMC-Na was administered as a control. The samples were administered six times over the course of five days, and measurements were made on day 5. The animals were dosed once a day from day 1 through day 4, and on day 5, they were orally dosed twice, 4 hours before and 30 minutes after administration of anti-TNP-IgE solution. The dose of Tomato Extract 1 was 0.16 mg, 0.8 mg or 4 mg per 1 kg of mouse body weight.
0.2 ml of 1% anti-TNP-IgE solution was administered from the vein of eye ground, and 30 minutes later, sample solution was orally administered. Further 30 minutes later, thickness of the left and right ears were measured. Immediately after that, 10 μl of 0.8% acetone-olive oil (1:1) solution of picryl chloride was applied to each ear. The thickness of the left and right ears of the mice were measured two hours after application, and the difference in ear thickness before and after application was taken to represent edema caused by anaphylaxis. A test of significance was carried out using the Student's t-test.
Measurement was made in the same manner as in (1) above, except for administration method. Samples were administered six times over the course of five days, and measurement was made on day 5. The animals were dosed once a day from day 1 through day 4, and on day 5, they were orally dosed twice, 4 hours before and 30 minutes after administration of anti-TNP-IgE solution. The dose of tricaffeoylquinic acid was 0.16 mg, 0.8 mg, 4 mg or 20 mg per kilogram of mouse body weight.

rat macrophages = test: Leukotriene B4 release inhibiting activity from rat macrophages (opsonized zymosan, ELISA); assay type: cell-based; conditions: Macrophage, read-out: Inhibition rate (%); for inhibition at 5 µg/mL: sample concentration 5 μg/ml; for inhibition at 50 µg/mL: sample concentration 50 μg/ml; for inhibition at 500 µg/mL: sample concentration 500 μg/ml
Experimental: Soluble starch (Wako, grade 1) and Bactopeptone (Difco) were suspended in physiological saline (0.9% NaCl, Ohtsuka Pharmaceutical, Co.) to have a concentration of 5% each. After sterilizing with an autoclave (121° C., 20 minutes), the suspension was cooled down to room temperature. The suspension was administered by injection into rat abdominal cavity in an amount of 5 mL per 100 g of body weight under ether anesthesia (using a 21G needle).
Four days later, the rats were sacrificed by exsanguination from the carotid artery under ether anesthesia. After adequately exsanguinating the rats, the rats were sprayed with ethanol and placed in a clean bench. 25 mL of CMF-HBSS (Ca, Mg free HBSS) were injected into the abdominal cavity followed by adequately rubbing the abdomen. The rats were laparotimized using sterilized instruments, and the solution within the abdominal cavity was collected. The collected solution was filtered using three layers of gauze. The abdominal cavity was further washed with 25 mL of CMF-HBSS (Ca, Mg free HBSS), and the solution was collected in the same manner. The collected cells were washed three times with ice-cold 0.1% BSA-PBS, suspended in 10% FBS-RPMI1640 medium. The cell suspension was dispersed in a 6 cm Petri dish to have 4.5×10^6 cells/3 mL/dish, and incubated for 2 hours in an incubator kept at 5% CO2 and 37° C. Subsequently, the supernatant was discarded, the Petri dish was washed three times with PBS to rinse off non-adherent cells, and the cells adhered onto inside of the Petri dish were used as macrophages. After the macrophages were pre-incubated for 20 minutes in 1% FBS-RPMI1640 medium, zymosan opsoninized using rat serum was added thereto, and the mixture was cultured in an incubator kept at 5% CO2 and 37° C. for a predetermined period of time. Incidentally, samples were added 30 minutes before addition of zymosan. After completion of culture, supernatant from the culture was recovered and the amount of LTB4 in the supernatant was measured using an ELISA kit (Leukotriene B4 EIA Kit, Cayman). Activity of inhibiting release of leukotriene B4 was calculated from the measured leukotriene B4 values using the following calculation formula (2): Leukotriene B4 release inhibition rate (%)=(1−(S−B)/(C−B))×100 (2) • B: Amount of leukotriene B4 released from control cells in the absence of inducer • C: Amount of leukotriene B4 released from cells in the presence of inducer • S: Amount of leukotriene B4 released from cells in the presence of test sample and inducer

[2] = Rattus norvegicus, histamine release
[3] = Rattus norvegicus, histamine release, read-out: Inhibition rate (%)

SMILES	IC50 (rat fat cells; [2])	inhibition at 25 µg/mL (rat fat cells; [3])	inhibition at 75 µg/mL (rat fat cells; [3])	cytotoxicity (viability and number of viable cells) [1]	histamine-release inhibiting activity (FIG. 7) (rat fat cells)	other results
CN1CCC(=C2c3ccccc3CC(=O)c3sccc32)CC1 [Ketotifen fumarate, ketotifen fumarate, reference compound]	~250 µg/mL	0%	13.1%	–	–	inhibition at 250 µg/mL (rat fat cells; [3]): 49.4%
O=C(O)CCC(=O)OC1C(OC(=O)/C=C/c2ccc(O)c(O)c2)CC(O)(C(=O)O)CC1OC(=O)/C=C/c1ccc(O)c(O)c1 (stereo not drawn) [dicaffeoylsuccinylquinic acid, 3,5-dicaffeoyl-4-succinylquinic acid]	–	–	–	no cytotoxicity was observed	exhibited a significantly high activity	–
O=C(O)/C=C/c1ccc(O)c(O)c1 [Caffeic acid, caffeic acid, reference compound]	~250 µg/mL (≈ 1390 µM)	–	–	–	more potent in the order of caffeic acid followed by dicaffeoylquinic acid	inhibition at 250 µg/mL (rat fat cells; [3]): 50.1%
O=C(/C=C/c1ccc(O)c(O)c1)O[C@@H]1C[C@](O)(C(=O)O)C[C@@H](O)[C@H]1O [chlorogenic acid, reference compound]	–	–	–	–	did not inhibit histamine-release	–
O=C(/C=C/c1ccc(O)c(O)c1)OC1CC(O)(C(=O)O)CC(OC(=O)/C=C/c2ccc(O)c(O)c2)C1OC(=O)/C=C/c1ccc(O)c(O)c1 (stereo not drawn) [Tricaffeoylquinic acid, 3,4,5-tricaffeoylquinic acid]	~25 µg/mL (≈ 36.8 µM)	54.1%	93.2%	no cytotoxicity was observed	exhibited a significantly high activity	anaphylaxis inhibitory action (FIG. 9) (mouse auricular edema; dose 4 mg per kg): exhibited an anaphylaxis inhibitory action; anaphylaxis inhibitory action (FIG. 10) (mouse auricular edema; orally administered, 0.16, 0.8, 4 or 20 mg per kg, six doses over five days): exhibited an anaphylaxis inhibitory action; activity relative to the known agents (caffeic acid, ketotifen fumarate) (rat fat cells): roughly 10 times; inhibition at 5 µg/mL (rat macrophages): 33.5%; inhibition at 50 µg/mL (rat macrophages): 65.8%; inhibition at 500 µg/mL (rat macrophages): 69.7%
O=C(O)[C@]1(O)C[C@@H](O)[C@@H](O)[C@H](O)C1 [quinic acid, reference compound]	–	–	–	–	did not inhibit histamine-release	–
O=C(/C=C/c1ccc(O)cc1)c1c(O)cc(O)cc1O [Naringenin chalcone, 2′,4′,6′,4-tetrahydroxy-chalcone]	~70 µg/mL (≈ 257 µM)	28.2%	53.9%	no cytotoxicity was observed	–	anaphylaxis inhibitory action (FIG. 8) (mouse auricular edema; doses 0.0064, 0.032, 0.16 or 0.8 mg per kg): exhibited an anaphylaxis inhibitory action dose-dependently; inhibition at 50 µg/mL (rat fat cells; Rattus norvegicus, histamine release, sample concentration 50 μg/ml, read-out: Inhibition rate (%)): 37.6%; inhibition at 200 µg/mL (rat fat cells; Rattus norvegicus, histamine release, sample concentration 200 μg/ml, read-out: Inhibition rate (%)): 82%; activity relative to the known agents (caffeic acid, ketotifen fumarate) (rat fat cells): roughly 3.5 times; inhibition at 5 µg/mL (rat macrophages): 62.3%; inhibition at 50 µg/mL (rat macrophages): 93.5%; inhibition at 500 µg/mL (rat macrophages): 98.2%
